Source: PubChem BioAssay (NCI)
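Cells were grown in 96-well plates and exposed to each compound for 48 hours at five concentrations; endpoints were interpolated linearly between bracketing concentrations, or set to the highest concentration if not reached. TGI: concentration producing complete growth inhibition.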

Each compound was assayed on HCT-116 colon (assay: inhibition of tumour cell growth, NCI panel, 48 h).
With `O=C(/C=C/c1ccc(Cl)cc1)Oc1ccc(C=C2CCC/C(=C\c3ccc(OC(=O)/C=C/c4ccc(Cl)cc4)cc3)C2=O)cc1` the TGI was > 100 µM.
`COc1ccc2c(c1)c1c(n2CCN2CCCCC2)-c2cccc(OC)c2CC1` was tested, and the TGI was > 100 µM.
With `COc1ccc2nc(NC(=O)/C(C#N)=C/c3ccccc3)sc2c1` the TGI was > 100 µM.
`Cc1c(C)n(-c2ccccc2)c2nc(S(C)=O)nc(S(C)=O)c12` (stereo not given) showed a TGI of 4.86 µM.
`CC1(C)CC(=O)C2=C(C1)C(c1ccccc1Cl)C1C(=O)CC(C)(C)CC1(O)O2` (stereo not given) was tested, and the TGI was > 100 µM.
In the case of `CCc1c(O)cc(=O)oc1-c1ccc(OC)c(OC)c1`, the TGI is reported as > 100 µM.
With `Cc1ccc2c(c1C)C(=O)C1(Cc3cc4c(cc3C1=O)CCC4)C2` (stereo not given) the TGI was > 100 µM.
`CCCCI(O)OS(=O)(=O)c1ccc(C)cc1` was tested, and the TGI was > 100 µM.
For `C[C@@H]1CC[C@@]2(C)C(C(=O)O)=CCCC2[C@@]1(C)CC(=O)c1ccoc1` (stereo not given in full), the TGI was > 25 µM.
In the case of `O=C(CCc1cc(O)cc(O)c1)NCCc1cc(OCc2ccccc2)cc(OCc2ccccc2)c1`, the TGI is reported as 32.2 µM.
In the case of `c1ccc(C2=NC3OC2c2ccccc23)cc1` (stereo not given), the TGI is reported as > 10 µM.
`O=c1oc2ccc3ccccc3c2cc1-c1cn2ccsc2n1` showed a TGI of 30.9 µM.
With `CCOC(=O)CSc1nc(N)c2c(-c3ccccc3)c3c(nc2n1)CCCC3` the TGI was > 100 µM.
In the case of `COC(=O)/C=C(/C=C1/C(C#N)=C(N)N(c2ccc(Cl)cc2)C1(C)/C(=C\C(=O)OC)C(=O)OC)C(=O)OC` (stereo not given), the TGI is reported as 31.2 µM.
`O=c1c2c3c(sc2[nH]c(=S)n1-c1ccccc1)CCCc1ccc([N+](=O)[O-])cc1-3` was tested, and the TGI was > 100 µM.
For `CCOC(=O)c1c(N2CCCC2)[nH]c(=O)c(C(c2ccc(OC)cc2)c2c(O)c(C(=O)OCC)c(N3CCCC3)[nH]c2=O)c1O`, the TGI was > 100 µM.
Compound `CCOC1C=CC(=O)C(CO)O1` (stereo not given) has a TGI of 17.4 µM.
With `Cc1c2cccc-2c2cc(O)c3ccccc3c2n1-c1ccc(N(C)C)cc1` the TGI was 35.4 µM.
With `O=c1[nH]c(NCc2ccncc2)nc2nc[nH]c12` the TGI was > 100 µM.
Work on `O=CC(I)=C(c1ccccc1)c1ccccc1` yielded a TGI of 27.2 µM.
For `Cn1c2ccccc2c2ccc3c(c21)C(=O)c1ccc2c4ccccc4n(C)c2c1C3=O`, the TGI was > 100 µM.
With `Cc1ccc(-c2cc(-c3ccco3)c(C#N)c(=S)[nH]2)cc1` the TGI was > 100 µM.
For `COc1ccc(C)cc1N1C(=O)C2ON(Cc3ccc(CC(N)=O)cc3)C(c3c4ccccc4c(Cl)c4ccccc34)C2C1=O` (stereo not given), the TGI was 32.7 µM.
In the case of `COc1ccc(C2Oc3ccc(Cl)cc3C=C2[N+](=O)[O-])cc1` (stereo not given), the TGI is reported as > 100 µM.
In the case of `COCOc1ccc(C(=O)Oc2cccc3c2OC(C)(C)O3)c(OCOC)c1`, the TGI is reported as > 100 µM.
With `COC(=O)c1ccccc1C1CN=NC12Cc1c(ccc(C)c1C)C2=O` (stereo not given) the TGI was > 100 µM.
With `NCCN1CCCCCc2ccccc21` the TGI was > 10 µM.
In the case of `CN(C)CCN(c1ccccn1)c1ccccn1`, the TGI is reported as > 100 µM.
`CN(CCN1CCCC1)C1CCc2cc(Cl)c(Cl)cc2C1` (stereo not given) gave a TGI of 25.5 µM.
`CC(C)Oc1cccc(N2C(n3ccnc3)=Nc3ccncc3S2(=O)=O)c1` was tested, and the TGI was 26.8 µM.
With `CC(C)NC(=O)OCc1c(COC(=O)NC(C)C)n(C)c2c1ccc1sccc12` the TGI was 39 µM.
In the case of `O=C(CC(NC(=O)C(F)(F)F)C(=O)O)OCc1ccccc1` (stereo not given), the TGI is reported as > 100 µM.

These compounds were tested on SF-268 CNS (assay: inhibition of tumour cell growth, NCI panel, 48 h).
`O=C(/C=C/c1ccc(Cl)cc1)Oc1ccc(C=C2CCC/C(=C\c3ccc(OC(=O)/C=C/c4ccc(Cl)cc4)cc3)C2=O)cc1` was tested, and the TGI was > 100 µM.
For `COc1ccc2c(c1)c1c(n2CCN2CCCCC2)-c2cccc(OC)c2CC1`, the TGI was 48.8 µM.
For `COc1ccc2nc(NC(=O)/C(C#N)=C/c3ccccc3)sc2c1`, the TGI was > 100 µM.
In the case of `Cc1c(C)n(-c2ccccc2)c2nc(S(C)=O)nc(S(C)=O)c12` (stereo not given), the TGI is reported as 22.8 µM.
In the case of `CC1(C)CC(=O)C2=C(C1)C(c1ccccc1Cl)C1C(=O)CC(C)(C)CC1(O)O2` (stereo not given), the TGI is reported as > 100 µM.
`CCc1c(O)cc(=O)oc1-c1ccc(OC)c(OC)c1` was tested, and the TGI was > 100 µM.
`Cc1ccc2c(c1C)C(=O)C1(Cc3cc4c(cc3C1=O)CCC4)C2` (stereo not given) was tested, and the TGI was > 100 µM.
`CCCCI(O)OS(=O)(=O)c1ccc(C)cc1` was tested, and the TGI was > 100 µM.
In the case of `C[C@@H]1CC[C@@]2(C)C(C(=O)O)=CCCC2[C@@]1(C)CC(=O)c1ccoc1` (stereo not given in full), the TGI is reported as > 25 µM.
In the case of `O=C(CCc1cc(O)cc(O)c1)NCCc1cc(OCc2ccccc2)cc(OCc2ccccc2)c1`, the TGI is reported as 43.2 µM.
With `c1ccc(C2=NC3OC2c2ccccc23)cc1` (stereo not given) the TGI was > 10 µM.
Compound `O=c1oc2ccc3ccccc3c2cc1-c1cn2ccsc2n1` has a TGI of 56.3 µM.
With `CCOC(=O)CSc1nc(N)c2c(-c3ccccc3)c3c(nc2n1)CCCC3` the TGI was > 100 µM.
For `COC(=O)/C=C(/C=C1/C(C#N)=C(N)N(c2ccc(Cl)cc2)C1(C)/C(=C\C(=O)OC)C(=O)OC)C(=O)OC` (stereo not given), the TGI was 47.8 µM.
In the case of `O=c1c2c3c(sc2[nH]c(=S)n1-c1ccccc1)CCCc1ccc([N+](=O)[O-])cc1-3`, the TGI is reported as > 100 µM.
With `CCOC(=O)c1c(N2CCCC2)[nH]c(=O)c(C(c2ccc(OC)cc2)c2c(O)c(C(=O)OCC)c(N3CCCC3)[nH]c2=O)c1O` the TGI was > 100 µM.
`CCOC1C=CC(=O)C(CO)O1` (stereo not given) was tested, and the TGI was 32.5 µM.
With `Cc1c2cccc-2c2cc(O)c3ccccc3c2n1-c1ccc(N(C)C)cc1` the TGI was 32.8 µM.
`O=c1[nH]c(NCc2ccncc2)nc2nc[nH]c12` was tested, and the TGI was > 100 µM.
For `O=CC(I)=C(c1ccccc1)c1ccccc1`, the TGI was > 56.8 µM.
In the case of `Cn1c2ccccc2c2ccc3c(c21)C(=O)c1ccc2c4ccccc4n(C)c2c1C3=O`, the TGI is reported as > 100 µM.
In the case of `Cc1ccc(-c2cc(-c3ccco3)c(C#N)c(=S)[nH]2)cc1`, the TGI is reported as > 100 µM.
`COc1ccc(C)cc1N1C(=O)C2ON(Cc3ccc(CC(N)=O)cc3)C(c3c4ccccc4c(Cl)c4ccccc34)C2C1=O` (stereo not given) showed a TGI of 82.3 µM.
For `COc1ccc(C2Oc3ccc(Cl)cc3C=C2[N+](=O)[O-])cc1` (stereo not given), the TGI was > 100 µM.
`COCOc1ccc(C(=O)Oc2cccc3c2OC(C)(C)O3)c(OCOC)c1` was tested, and the TGI was > 100 µM.
In the case of `COC(=O)c1ccccc1C1CN=NC12Cc1c(ccc(C)c1C)C2=O` (stereo not given), the TGI is reported as > 100 µM.
With `NCCN1CCCCCc2ccccc21` the TGI was > 10 µM.
With `CN(C)CCN(c1ccccn1)c1ccccn1` the TGI was > 100 µM.
`CN(CCN1CCCC1)C1CCc2cc(Cl)c(Cl)cc2C1` (stereo not given) was tested, and the TGI was 34 µM.
`CC(C)Oc1cccc(N2C(n3ccnc3)=Nc3ccncc3S2(=O)=O)c1` was tested, and the TGI was 30.2 µM.
`CC(C)NC(=O)OCc1c(COC(=O)NC(C)C)n(C)c2c1ccc1sccc12` gave a TGI of 21.5 µM.
In the case of `O=C(CC(NC(=O)C(F)(F)F)C(=O)O)OCc1ccccc1` (stereo not given), the TGI is reported as > 100 µM.

The compounds below were run on SK-OV-3 ovarian (assay: inhibition of tumour cell growth, NCI panel, 48 h).
For `O=C(/C=C/c1ccc(Cl)cc1)Oc1ccc(C=C2CCC/C(=C\c3ccc(OC(=O)/C=C/c4ccc(Cl)cc4)cc3)C2=O)cc1`, the TGI was > 100 µM.
`COc1ccc2c(c1)c1c(n2CCN2CCCCC2)-c2cccc(OC)c2CC1` was tested, and the TGI was > 100 µM.
For `COc1ccc2nc(NC(=O)/C(C#N)=C/c3ccccc3)sc2c1`, the TGI was > 100 µM.
`Cc1c(C)n(-c2ccccc2)c2nc(S(C)=O)nc(S(C)=O)c12` (stereo not given) showed a TGI of 32.4 µM.
For `CC1(C)CC(=O)C2=C(C1)C(c1ccccc1Cl)C1C(=O)CC(C)(C)CC1(O)O2` (stereo not given), the TGI was > 100 µM.
For `CCc1c(O)cc(=O)oc1-c1ccc(OC)c(OC)c1`, the TGI was > 100 µM.
With `Cc1ccc2c(c1C)C(=O)C1(Cc3cc4c(cc3C1=O)CCC4)C2` (stereo not given) the TGI was > 100 µM.
`CCCCI(O)OS(=O)(=O)c1ccc(C)cc1` was tested, and the TGI was > 100 µM.
`C[C@@H]1CC[C@@]2(C)C(C(=O)O)=CCCC2[C@@]1(C)CC(=O)c1ccoc1` (stereo not given in full) was tested, and the TGI was > 25 µM.
For `O=C(CCc1cc(O)cc(O)c1)NCCc1cc(OCc2ccccc2)cc(OCc2ccccc2)c1`, the TGI was 31.6 µM.
For `c1ccc(C2=NC3OC2c2ccccc23)cc1` (stereo not given), the TGI was > 10 µM.
With `O=c1oc2ccc3ccccc3c2cc1-c1cn2ccsc2n1` the TGI was > 100 µM.
For `CCOC(=O)CSc1nc(N)c2c(-c3ccccc3)c3c(nc2n1)CCCC3`, the TGI was > 100 µM.
`COC(=O)/C=C(/C=C1/C(C#N)=C(N)N(c2ccc(Cl)cc2)C1(C)/C(=C\C(=O)OC)C(=O)OC)C(=O)OC` (stereo not given) was tested, and the TGI was > 100 µM.
With `O=c1c2c3c(sc2[nH]c(=S)n1-c1ccccc1)CCCc1ccc([N+](=O)[O-])cc1-3` the TGI was > 100 µM.
With `CCOC(=O)c1c(N2CCCC2)[nH]c(=O)c(C(c2ccc(OC)cc2)c2c(O)c(C(=O)OCC)c(N3CCCC3)[nH]c2=O)c1O` the TGI was > 100 µM.
